Experimental data reported in patent US20240415918A1, “Polypeptide and its use as a CCK receptor agonist/antagonist” (Centre for Regenerative Medicine & Health, Hong Kong …, priority 2021, published 2024).
Where a SMILES comes first, the peptide text is derived from it. [ ]: non-standard residue; d: D form. The star is where a group is joined. dTrp(2-Me) = Cc1[nH]c2ccccc2c1C[C@@H](N)C(=O)O; Phe(3-Br) = N[C@@H](Cc1cccc(Br)c1)C(=O)O; dNMeW = CN[C@H](Cc1c[nH]c2ccccc12)C(=O)O; dGly(nOct) = CCCCCCCC[C@@H](N)C(=O)O; Fmoc = O=C(OCC1c2ccccc2-c2ccccc21)*; Gly(octyl) = CCCCCCCC[C@H](N)C(=O)O; dAoc(2) = CCCCCC[C@@H](N)C(=O)O; Aad = N[C@@H](CCCC(=O)O)C(=O)O; Aoc(2) = CCCCCC[C@H](N)C(=O)O; Ahp(2) = CCCCC[C@H](N)C(=O)O; Nle = CCCC[C@H](N)C(=O)O

Key:
[1] = system: neocortex of memory-deficient mice; experiment: Long-term potentiation, in vitro field potential recording of brain slices (MED64), memory-deficient mice; assay type: cell-based; details: compound injected for five minutes
Description: An in vitro electrophysiological electrical signal recording method was used to investigate whether compound HT-267, compound HT-177, and compound HT-178 can induce long-term potentiation in the neocortex of memory-deficient mice. The MED64 low-noise multi-electrode recording system was used to record the electrical signals of brain slices cultured in vitro.

[2] = system: CCK-B receptor carrying green fluorescence; details: intraperitoneal injection, visual cortex imaging
[3] = in vivo; details: male, KM, mouse, iv, 1 mg/kg, T1/2
[4] = system: memory-deficient mice; experiment: New object recognition experiment, memory-deficient mice; assay type: in vivo; details: intraperitoneal injection
Description: The new object recognition experiment is a highly validated method of cognitive memory, designed by Ennaceur & Delacour (1988) based on the exploration characteristics of rodents to new environments, and this model evaluates the memory function of the tested animal based on the length of time that the animal spends in exploring familiar objects it has seen in the environment and new objects it has not seen. […] The experiment is usually divided into three stages: 1. Adaptation period: let the animal be familiar with the experimental environment, and no objects are placed in the experimental box; 2. Familiarization period: place two identical objects in the experimental box and let the mice explore freely for 10 minutes; 3. Test period: put a new object in the experimental box to replace one of the old objects, and the positions of the objects remain unchanged. The exploration of mice was recorded with video, and the time spent in exploring the old and new objects by mice was analyzed, and the proportion of time spent in exploring the new object by mice in the test period accounting for the total time for exploring the objects was calculated, that is, the recognition index of new objects.
Adult memory-deficient mice were housed under standard conditions with free access to food and water. Our new object recognition experiment for testing memory-deficient mice mainly included the adaptation period, the familiarization period, and the test period. The experimental method was the same as Example 12.
We randomized memory-deficient mice into four groups, with one group given intraperitoneal injection of the solvent of drug as the control group, administration group 1 given intraperitoneal injection of the compound HT-267 solution, administration group 2 given intraperitoneal injection of the compound HT-177 solution, and administration group 3 given intraperitoneal injection of the compound HT-178 solution. After the adaptation and familiarization period training, we tested the recognition memory of several groups of mice in the test period experiment.

[5] = Pharmacokinetics in KM mice after intravenous administration; details: male, mouse, plasma, 1 mg/kg
[6] = target: T1, CCK-B receptors (CHO-CCK) (Homo sapiens, UniProt P32239); experiment: Calcium flux (Fluo-8) agonist test on CHO-CCK model cells; assay type: cell-based; details: CHO-CCK cells
T1 construct: expressed in transfected cells; host or cells: CHO (CHO-CCK model cells)
T1 sequence (P32239 1-447): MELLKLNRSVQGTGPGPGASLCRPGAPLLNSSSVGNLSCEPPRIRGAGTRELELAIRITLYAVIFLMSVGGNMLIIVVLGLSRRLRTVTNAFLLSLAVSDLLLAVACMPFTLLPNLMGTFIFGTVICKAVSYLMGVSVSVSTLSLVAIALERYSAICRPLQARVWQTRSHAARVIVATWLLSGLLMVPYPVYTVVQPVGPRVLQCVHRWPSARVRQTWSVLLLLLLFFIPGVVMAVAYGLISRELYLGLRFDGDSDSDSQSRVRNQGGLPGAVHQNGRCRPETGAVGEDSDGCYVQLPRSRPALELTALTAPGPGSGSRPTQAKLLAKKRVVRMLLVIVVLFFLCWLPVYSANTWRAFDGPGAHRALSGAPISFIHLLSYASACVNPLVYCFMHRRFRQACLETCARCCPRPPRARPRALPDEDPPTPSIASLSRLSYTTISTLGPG
Summary of the method: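 Agonist-mode Fluo-8 calcium flux read on CHO-CCK cells after dye loading 30 min at 37 °C plus 30 min at room temperature.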

[7] = target: T1, CCK-B receptors (CHO-CCK); experiment: Calcium flux (Fluo-8) antagonist test on CHO-CCK model cells in presence of CCK8; assay type: cell-based
[8] = system: memory-deficient mice; experiment: Morris water maze, memory-deficient mice; assay type: in vivo; details: intraperitoneal injection, CCK4 four times a day 10 days, HT compounds once a day 8 days
Description: Adult memory-deficient mice were housed under standard conditions with free access to food and water. Our Morris water maze experiment for testing memory-deficient mice mainly included two parts: positioning navigation experiment and space exploration experiment. The experimental methods were the same as Example 5. We randomized memory-deficient mice into six groups, with the first group given intraperitoneal injection of the CCK4 solution, the second group given intraperitoneal injection of the solvent of CCK4 solution as a control, the third group given intraperitoneal injection of the compound HT-267 solution, the fourth group given intraperitoneal injection of the compound HT-177 solution, the fifth group given intraperitoneal injection of the compound HT-178 solution, and the sixth group given intraperitoneal injection of the solvent of compound solution as a control. In the positioning navigation experiment, the treatment and training methods of the first and the second groups were the same as those of the first and second groups in Example 5, that is, four times of treatment a day, four times of training a day, for a total of 10 days of training. The treatment and training methods of the third to sixth groups were the same as the third and fourth groups in Example 5, that is, one treatment a day, four times of training a day, for a total of 8 days of training. In the space exploration experiment, the spatial memory ability of mice was tested in the same way for each group.

[9] = compound alone, 100% = 20 nM CCK8
[10] = compound together with 10 nM CCK8
[11] = Fluo-8 calcium flux, 100% control = 20 nM CCK8
[12] = in presence of 10 nM CCK8, bound in μM

Structure (SMILES)	EC50 [6, 11] [nM]	EC50 ([7]; in presence of 10 nM CCK8) [µM]	other results
CCCC[C@H](NC(=O)[C@H](Cc1c[nH]c2ccccc12)NC(C)=O)C(=O)N[C@@H](CC(=O)O)C(=O)N[C@@H](Cc1cccc(Br)c1)C(N)=O [HT-177, Ac-Trp-Nle-Asp-Phe(3-Br)-NH2] (Ac-W[Nle]D[Phe(3-Br)]-NH2)	–	–	basal field potential after administration (long-term potentiation) [1]: enhanced, and the enhancement lasted for more than one hour; blood-brain barrier crossing / green fluorescence signal of CCK-B receptor sensor [2]: crossed the blood-brain barrier and was bound to the CCK-B receptor; half-life [3]: 43.3 min; recognition index of new objects vs control [4]: significantly higher than that of the control group; AUC(0-inf) [5]: 641 ng·h/mL; Cmax [5]: 403 ng/mL; Tmax [5]: 15 min; agonistic/antagonistic activity on CCK-B receptors (in words) ([6]; calcium signal): more active; EC50 [6, 9]: 0.056 nM; EC50 [7, 10]: 0.279 µM; proportion of exploration duration in the target quadrant vs control [8]: significantly higher than that in the control group
CCCC[C@H](NC(=O)[C@@H](Cc1c[nH]c2ccccc12)NC(C)=O)C(=O)N[C@@H](CC(=O)O)C(=O)N[C@@H](Cc1cccc(Br)c1)C(N)=O [HT-178, Ac-D-Trp-Nle-Asp-Phe(3-Br)-NH2] (Ac-[dW][Nle]D[Phe(3-Br)]-NH2)	–	–	basal field potential after administration (long-term potentiation) [1]: enhanced, and the enhancement lasted for more than one hour; recognition index of new objects vs control [4]: significantly higher than that of the control group; EC50 [6, 9]: 2.81 nM; EC50 [7, 10]: 0.528 µM; proportion of exploration duration in the target quadrant vs control [8]: significantly higher than that in the control group
CSCC[C@H](NC(=O)[C@@H](Cc1cc2ccccc2[nH]1)NC(=O)[C@@H](N)CCC(=O)O)C(=O)N[C@@H](CC(=O)O)C(=O)N[C@@H](Cc1cccc(Br)c1)C(N)=O [HT-255, Glu-D-Trp-Met-Asp-Phe(3-Br)-NH2]	0.569	0.0403	–
CSCC[C@H](NC(=O)[C@@H](Cc1cc2ccccc2[nH]1)NC(=O)[C@@]1(O)C[C@@H](O)[C@H](NC(C)=O)C([C@@H](O)[C@@H](O)CO)O1)C(=O)N[C@@H](CC(=O)O)C(=O)N[C@@H](Cc1cccc(Br)c1)C(N)=O (stereo partly drawn) [HT-256, Sia-D-Trp-Met-Asp-Phe(3-Br)-NH2]	0.672	0.0419	–
CCCCC[C@H](NC(=O)[C@@H](Cc1c[nH]c2ccccc12)N(C)C(=O)OCC1c2ccccc2-c2ccccc21)C(=O)N[C@@H](CC(=O)O)C(=O)N[C@@H](Cc1cccc(Br)c1)C(N)=O [HT-258, Fmoc-(N-Me-Trp)-Pa-Asp-Phe(3-Br)-NH2] (Fmoc-[dNMeW][Ahp(2)]D[Phe(3-Br)]-NH2)	22.6	1.04	–
CCCC[C@H](NC(=O)[C@@H](Cc1c(C)[nH]c2ccccc12)NC(C)=O)C(=O)N[C@@H](CCCC(=O)O)C(=O)N[C@@H](Cc1cccc(Br)c1)C(N)=O [HT-262, Ac-(2-Me-Trp)-Nle-Aa-Phe(3 Br)-NH2] (Ac-[dTrp(2-Me)][Nle][Aad][Phe(3-Br)]-NH2)	1180	–	EC50 [7, 12]: > 10 µM
CCCCCC[C@@H](NC(C)=O)C(=O)N[C@@H](CCCC)C(=O)N[C@@H](CCC(=O)O)C(=O)N[C@@H](Cc1cccc(Br)c1)C(N)=O [HT-263, Ac-Oa-Nle-Glu-Phe(3-Br)-NH2] (Ac-[dAoc(2)][Nle]E[Phe(3-Br)]-NH2)	64500	–	EC50 [7, 12]: > 10 µM
CCCCCCC[C@@H](NC(C)=O)C(=O)N[C@@H](CCCC)C(=O)N[C@@H](CCC(=O)O)C(=O)N[C@@H](Cc1cccc(Br)c1)C(N)=O [HT-264, Ac-Na-Nle-Glu-Phe(3-Br)-NH2]	11000	–	EC50 [7, 12]: > 10 µM
CCCCCCCC[C@@H](NC(C)=O)C(=O)N[C@@H](CCCC)C(=O)N[C@@H](CCC(=O)O)C(=O)N[C@@H](Cc1cccc(Br)c1)C(N)=O [HT-265, Ac-Da-Nle-Glu-Phe(3-Br)-NH2] (Ac-[dGly(nOct)][Nle]E[Phe(3-Br)]-NH2)	13000	–	EC50 [7, 12]: > 10 µM
CCCCCCCCCCCCCC[C@@H](NC(C)=O)C(=O)N[C@@H](CCCC)C(=O)N[C@@H](CCCCCC)C(=O)N[C@@H](Cc1cccc(Br)c1)C(N)=O [HT-266, Ac-Ha-Nle-Oa-Phe(3-Br)-NH2]	40.2	1.29	–

More lines, main results first:

EC50 [6, 11] [nM]	EC50 ([7]; in presence of 10 nM CCK8) [µM]	Structure (SMILES)	other results
3.34	0.132	CCCCC[C@H](NC(=O)[C@@H](Cc1c[nH]c2ccccc12)NC(C)=O)C(=O)N[C@@H](CC(=O)O)C(=O)N[C@@H](Cc1cccc(Br)c1)C(N)=O [HT-257, Ac-D-Trp-Pa-Asp-Phe(3-Br)-NH2] (Ac-[dW][Ahp(2)]D[Phe(3-Br)]-NH2)	–
2.29	0.0592	CCCCCC[C@H](NC(=O)[C@H](Cc1c[nH]c2ccccc12)NC(C)=O)C(=O)N[C@@H](CC(=O)O)C(=O)N[C@@H](Cc1cccc(Br)c1)C(N)=O [HT-259, Ac-D-Trp-Oa-Asp-Phe(3-Br)-NH2] (Ac-W[Aoc(2)]D[Phe(3-Br)]-NH2)	–
160	2.74	CCCCCCC[C@H](NC(=O)[C@H](Cc1c[nH]c2ccccc12)NC(C)=O)C(=O)N[C@@H](CC(=O)O)C(=O)N[C@@H](Cc1cccc(Br)c1)C(N)=O [HT-260, Ac-D-Trp-Na-Asp-Phe(3-Br)-NH2]	–
362	3.82	CCCCCCCC[C@H](NC(=O)[C@H](Cc1c[nH]c2ccccc12)NC(C)=O)C(=O)N[C@@H](CC(=O)O)C(=O)N[C@@H](Cc1cccc(Br)c1)C(N)=O [HT-261, Ac-D-Trp-Da-Asp-Phe(3-Br)-NH2] (Ac-W[Gly(octyl)]D[Phe(3-Br)]-NH2)	–
